Assay [1] deals with humanen Thrombozyten. Nature of the assay: Inhibition of collagen-induced arachidonic acid (3H-AA) release from platelets. Particulars: Homo sapiens, Platelet, read-out: AA in % (Hemmung der Collagen induzierten Arachidonsäurefreisetzung). The format is cell-based. From the text: Als weiterer Indikator einer PLA2-Inhibition gilt eine Hemmung der AA-Freisetzung aus Thrombozyten. Zu diesem Zweck werden die Thrombozyten mit ^3H-AA inkubiert. Diese zugegebene radioaktive Arachidonsäure baut sich in Membranphospholipide ein. Anschließend wird die thrombozytäre PLA2 über den Collagenrezeptor aktiviert und ^3H-AA so aus Phospholipen wieder ins Medium freigesetzt, wo sie quantifiziert werden kann.

In assay [2] the target is T1, humane rekombinante Typ II PLA2 (Homo sapiens, UniProt P14555).
T1 sequence (P14555 21-144): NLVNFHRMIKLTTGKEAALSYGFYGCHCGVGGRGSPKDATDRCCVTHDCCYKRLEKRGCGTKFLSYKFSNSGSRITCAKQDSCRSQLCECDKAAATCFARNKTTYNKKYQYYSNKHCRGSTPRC
Briefly: In-vitro inhibition of PLA2 enzyme activity. The format is biochemical. Particulars: for inhibition at 1 µg/mL / inhibition at 10 µg/mL / inhibition at 100 µg/mL: read-out: PLA2 in % (Hemmung der Enzymaktivität); for PLA2 in % (Hemmung der Enzymaktivität) / inhibition at 100 µg/mL: 100 µg/ml. An excerpt:
Als typischer Vertreter einer PLA2 wurde die humane rekombinante Typ-II-PLA2 (= synoviale PLA2) zur Testung eingesetzt.
Die Tabelle 1 enthält die prozentuale in-vitro Hemmung dieses Enzyms durch die Verbindung des Beispiels 1, einen Spiro-Oxetan-Vertreter. Das Enzym wird dosisabhängig bis zu 93 % inhibiert.

On to `O=C1C=CC2(C=C1)CC1(CCC(=O)O1)O2` (centres unmarked) [Bsp. 1, 1,6-Dioxadispiro[4.1.5.1]trideca-8,11-dien-2,10-dion], for which, in assay [1], the inhibition at 1 µg/mL was 42%, the inhibition at 10 µg/mL was 86% and the inhibition at 100 µg/mL came to 100%. Further, in assay [2], the inhibition at 1 µg/mL was 11%, the inhibition at 10 µg/mL was 37%, the “PLA2 in % (Hemmung der Enzymaktivität)” value was 93% and the inhibition at 100 µg/mL was at most 93%.
As for `COc1ccc2c(c1)c(CC(=O)O)c(C)n2C(=O)c1ccc(Cl)cc1` [Indomethacin], in assay [1], the inhibition at 1 µg/mL is 6%, the inhibition at 10 µg/mL is 18% and the inhibition at 100 µg/mL was found to be 23%. In addition, in assay [2], the inhibition at 1 µg/mL stood at 0%, the inhibition at 10 µg/mL amounted to 10%, the “PLA2 in % (Hemmung der Enzymaktivität)” value is reported as 52% and the inhibition at 100 µg/mL is 52%.

The values above are taken from patent EP0643712B1, “SPIRO-OXETANES, PROCESS FOR PREPARING THE SAME AND MEDICAMENTS” (BOEHRINGER MANNHEIM GMBH, priority 1992, dated 1993).
